In ChEMBL document CHEMBL3885881, “DrugMatrix”:

Species: Rattus norvegicus
Assay: DrugMatrix - Regimen: Daily Repeat
Format: toxicity, organism-based, Sprague-Dawley
Design: regimen Daily Repeat, gender Male, age 6-8 weeks
Details: in vivo, po, route oral GAVAGE, vehicle .5 % CMC; for ALANINE AMINOTRANSFERASE / ALBUMIN / ALKALINE PHOSPHATASE / ASPARTATE AMINOTRANSFERASE / BLOOD UREA NITROGEN / CARBON DIOXIDE / CHLORIDE / CHOLESTEROL / CREATINE PHOSPHOKINASE / CREATININE / GLUCOSE / LACTATE DEHYDROGENASE / LIPASE / PHOSPHORUS / POTASSIUM / SODIUM / TOTAL BILIRUBIN / TOTAL PROTEIN / URIC ACID: tissue Plasma; for ABSOLUTE BASOPHIL / ABSOLUTE EOSINOPHIL / ABSOLUTE LYMPHOCYTE / ABSOLUTE MONOCYTE / ABSOLUTE SEGMENTED NEUTROPHIL / BASOPHIL / EOSINOPHIL / ERYTHROCYTE COUNT / HEMATOCRIT / HEMOGLOBIN / LEUKOCYTE COUNT / LYMPHOCYTE / MEAN CORPUSCULAR HEMOGLOBIN / MEAN CORPUSCULAR HEMOGLOBIN CONCENTRATION / MEAN CORPUSCULAR VOLUME / MONOCYTE / NEUTROPHIL / NUCLEATED RED BLOOD CELLS / PLATELET COUNT: tissue Blood
[1] = 88 mg/kg, 72 h, dose level Low, time 3 day
[2] = 88 mg/kg, 120 h, dose level Low, time 5 day
[3] = 2000 mg/kg, 72 h, dose level High, time 3 day

CC(C)[C@H](N)C(=O)OCCOCn1cnc2c(=O)[nH]c(N)nc21 [VALACYCLOVIR]
ALANINE AMINOTRANSFERASE [1]: 55 u/L | ALBUMIN [1]: 4.33 G/DL | ALKALINE PHOSPHATASE [1]: 415.33 u/L | ASPARTATE AMINOTRANSFERASE [1]: 100.67 u/L | BLOOD UREA NITROGEN [1]: 14.67 mg/dL | CARBON DIOXIDE [1]: 27 mmol/L | CHLORIDE [1]: 101 MEQ/L | CHOLESTEROL [1]: 77 mg/dL | CREATINE PHOSPHOKINASE [1]: 717.67 u/L | CREATININE [1]: 0.2 mg/dL | GLUCOSE [1]: 147.33 mg/dL | LACTATE DEHYDROGENASE [1]: 667.67 u/L | LIPASE [1]: 10.67 u/L | PHOSPHORUS [1]: 12.5 mg/dL | POTASSIUM [1]: 6.48 MEQ/L | SODIUM [1]: 144.3 MEQ/L | TOTAL BILIRUBIN [1]: 0.2 mg/dL | TOTAL PROTEIN [1]: 6.23 G/DL | URIC ACID [1]: 1.4 mg/dL | ABSOLUTE BASOPHIL [2]: 0 CELLS/uL | ABSOLUTE EOSINOPHIL [2]: 94 CELLS/uL | ABSOLUTE LYMPHOCYTE [2]: 9072.33 CELLS/uL | ABSOLUTE MONOCYTE [2]: 117.33 CELLS/uL | ABSOLUTE SEGMENTED NEUTROPHIL [2]: 1283 CELLS/uL | BASOPHIL [2]: 0% | EOSINOPHIL [2]: 0.67% | ERYTHROCYTE COUNT [2]: 5.42 x10E6/uL | HEMATOCRIT [2]: 33.93% | HEMOGLOBIN [2]: 13.17 G/DL | LEUKOCYTE COUNT [2]: 10.57 x10E3/uL | LYMPHOCYTE [2]: 86.33% | MEAN CORPUSCULAR HEMOGLOBIN [2]: 24.3 pg | MEAN CORPUSCULAR HEMOGLOBIN CONCENTRATION [2]: 38.83 G/DL | MEAN CORPUSCULAR VOLUME [2]: 62.57 fL | MONOCYTE [2]: 1.33% | NEUTROPHIL [2]: 11.67% | NUCLEATED RED BLOOD CELLS [2]: 0 /100WBC | PLATELET COUNT [2]: 1317.67 x10E3/uL | ALANINE AMINOTRANSFERASE [2]: 58.33 u/L | ALBUMIN [2]: 4.43 G/DL | ALKALINE PHOSPHATASE [2]: 393 u/L | ASPARTATE AMINOTRANSFERASE [2]: 91 u/L | BLOOD UREA NITROGEN [2]: 18 mg/dL | CARBON DIOXIDE [2]: 28.33 mmol/L | CHLORIDE [2]: 103.33 MEQ/L | CHOLESTEROL [2]: 75.33 mg/dL | CREATINE PHOSPHOKINASE [2]: 215.67 u/L | CREATININE [2]: 0.21 mg/dL | GLUCOSE [2]: 137.33 mg/dL | LACTATE DEHYDROGENASE [2]: 175.67 u/L | LIPASE [2]: 9.33 u/L | PHOSPHORUS [2]: 13.03 mg/dL | POTASSIUM [2]: 7.1 MEQ/L | SODIUM [2]: 147.83 MEQ/L | TOTAL BILIRUBIN [2]: 0.23 mg/dL | TOTAL PROTEIN [2]: 6.33 G/DL | URIC ACID [2]: 1.57 mg/dL | ABSOLUTE BASOPHIL [3]: 0 CELLS/uL | ABSOLUTE EOSINOPHIL [3]: 83 CELLS/uL | ABSOLUTE LYMPHOCYTE [3]: 8794.67 CELLS/uL | ABSOLUTE MONOCYTE [3]: 95 CELLS/uL | ABSOLUTE SEGMENTED NEUTROPHIL [3]: 994 CELLS/uL | BASOPHIL [3]: 0% | EOSINOPHIL [3]: 1% | ERYTHROCYTE COUNT [3]: 4.99 x10E6/uL | HEMATOCRIT [3]: 31.53% | HEMOGLOBIN [3]: 12.63 G/DL | LEUKOCYTE COUNT [3]: 9.97 x10E3/uL | LYMPHOCYTE [3]: 88% | MEAN CORPUSCULAR HEMOGLOBIN [3]: 25.3 pg | MEAN CORPUSCULAR HEMOGLOBIN CONCENTRATION [3]: 40.1 G/DL | MEAN CORPUSCULAR VOLUME [3]: 63.07 fL | MONOCYTE [3]: 1% | NEUTROPHIL [3]: 10% | NUCLEATED RED BLOOD CELLS [3]: 0 /100WBC | PLATELET COUNT [3]: 1175 x10E3/uL | ALANINE AMINOTRANSFERASE [3]: 43.33 u/L | ALBUMIN [3]: 4 G/DL | ALKALINE PHOSPHATASE [3]: 329.67 u/L | ASPARTATE AMINOTRANSFERASE [3]: 81.67 u/L | BLOOD UREA NITROGEN [3]: 79.33 mg/dL | CARBON DIOXIDE [3]: 22.67 mmol/L | CHLORIDE [3]: 101 MEQ/L | CHOLESTEROL [3]: 118.67 mg/dL | CREATINE PHOSPHOKINASE [3]: 274.33 u/L | CREATININE [3]: 1.22 mg/dL | GLUCOSE [3]: 158.33 mg/dL | LACTATE DEHYDROGENASE [3]: 182 u/L | LIPASE [3]: 10.67 u/L | PHOSPHORUS [3]: 10.07 mg/dL | POTASSIUM [3]: 5.9 MEQ/L | SODIUM [3]: 143.87 MEQ/L | TOTAL BILIRUBIN [3]: 0.23 mg/dL | TOTAL PROTEIN [3]: 6.3 G/DL | URIC ACID [3]: 1.2 mg/dL
